# Laboratory results reported in patent publication US20190119200A1, “TERTIARY AMIDES AND METHOD OF USE” (AbbVie Inc., priority 2016, published 2019).
# Experiments:
# Type in all cases: cell-based
# [1] = test system: LPA-induced MCP-1 in NRK-49F cells; test: LPA-induced MCP-1 AlphaLISA assay; conditions: Rattus norvegicus, final LPA 10 μM, 7 hours; for Emax: read-out: Maximum Inhibition
# Method in brief: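 NRK-49F rat fibroblasts, serum-starved overnight, pretreated with compound for 30 min at 37 °C (1% DMSO final), then stimulated with 10 μM LPA final. MCP-1 in the supernatant was measured by mouse/rat CCL2 AlphaLISA. IC50 values came from four-parameter logistic fits of the ratio data.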
# LPAR1 [2] = molecular target: T1, LPAR1 (Homo sapiens, UniProt Q92633); test: LPAR1 Arrestin Assay (arrestin reporter assay); conditions: U2OS cells stably expressing the LPAR1 receptor, 200 nM 18:1 LPA (EC80); for Emax: read-out: Maximum Inhibition
# T1 construct: host or cells: U2OS
# T1 sequence (Q92633 whole entry): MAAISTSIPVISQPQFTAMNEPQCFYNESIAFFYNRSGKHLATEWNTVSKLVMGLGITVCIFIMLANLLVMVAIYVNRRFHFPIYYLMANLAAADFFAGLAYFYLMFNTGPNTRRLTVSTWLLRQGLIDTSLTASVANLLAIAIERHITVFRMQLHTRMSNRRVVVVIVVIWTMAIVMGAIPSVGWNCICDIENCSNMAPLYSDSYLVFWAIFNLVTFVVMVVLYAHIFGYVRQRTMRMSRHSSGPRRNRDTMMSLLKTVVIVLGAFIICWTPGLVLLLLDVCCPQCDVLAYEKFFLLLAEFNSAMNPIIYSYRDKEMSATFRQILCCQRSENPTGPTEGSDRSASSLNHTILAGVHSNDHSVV
# Protocol: One day prior to the experiment, frozen U2OS cells stably expressing the LPAR1 receptor (Life Technologies, Grand Island, N.Y., #K1519A) were thawed, centrifuged at 1,000 rpm for 5 minutes to remove DMSO, and resuspended in FreeStyle™ media (Gibco, Grand Island, N.Y.). Forty microliters of cells were plated into PDL-coated 384-well plates (Greiner Bio-One, Monroe, N.C.) at 10,000 cells/well, and then the plates were incubated overnight in humidified 5% CO2 at 37° C. Test compounds were dissolved in DMSO, and 12-point, 1:3 dilution CRCs were prepared in duplicate; daughter plates were prepared by aliquoting 0.8 μL/well of test compound dilutions into 384-well plates. On the day of the assay, the daughter plates were diluted to 6× stocks using HEPES-buffered HBSS, then 10 μL of 6× test compounds were added to the cells, and the plates were incubated at 37° C. for one hour. After this 1 hour incubation, 10 μL of a 6× stock of the LPAR1 agonist, 18:1 LPA (Avanti Polar Lipids, Alabaster, Ala.), was prepared in HEPES-buffered HBSS+0.1% fatty acid-free BSA (Sigma, St. Louis, Mo.). The 6×LPA was added to all wells for a final concentration of 200 nM, which corresponds to the 18:1 LPA EC80 in this arrestin assay. The final DMSO concentration in the assay plate was 0.1%, and the final BSA concentration was 0.02%. After addition of LPA to all wells, the assay plates were incubated in humidified 5% CO2 at 37° C. for five hours. During the incubation period, 6× dye from the LiveBLAzer™-FRET B/G with CCF4-AM kit (Life Technologies, Grand Island, N.Y.) was prepared according to manufacturers' instructions. At the end of the 5 hour compound incubation, 10 μL of 6× dye was added to each well, and the assay plate was incubated for two hours in the dark at room temperature. Throughout the assay procedure, all volume additions were performed with a Biomek® NX liquid handler (Beckman Coulter, Indianapolis, Ind.). After the 2 hour dye-load, fluorescence was measured on an EnVision® Multilabel Plate Reader (Perkin Elmer, Waltham, Mass.) with an excitation filter at 409/20 nm and emission filters at 460/40 nm and 530/30 nm. Data processing was performed as recommended by the LiveBLAzer™-FRET B/G with CCF4-AM kit manual; all test compound CRCs were performed in duplicate with n≥3.
# LPAR1 [3] = molecular target: T1, LPAR1; test: LPAR1 FLIPR Assay; conditions: U2OS cells stably expressing LPAR1, LPA (EC80), Calcium 6 FLIPR dye; for Emax: read-out: Maximum Inhibition
# Method in brief: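 U2OS cells stably expressing LPAR1 were loaded with Calcium 6 dye for 2 h at 37° C, preincubated 3 min with compound (11-point 3-fold series), then stimulated with LPA at EC80. Fluorescence at 515-575 nm was recorded by FLIPR; IC50 came from four-parameter logistic fits of ratio data.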
SMILES,IC50 [1],Emax [1],IC50 (LPAR1 [2]),Emax (LPAR1 [2]),IC50 (LPAR1 [3]),Emax (LPAR1 [3])
"COc1cc(C(=O)N(CCCc2ccccc2)CCC[C@H](C)C(=O)O)cc(OC)c1C (single isomer, unassigned) [Example 78]",0.078 µM,95%,0.011 µM,103%,0.033 µM,100%
"COc1cc(C(=O)N(CCCCC(=O)O)CCCc2ccccc2)c(F)c(OC)c1F [Example 30, 5-[(2,4-difluoro-3,5-dimethoxybenzoyl)(3-phenylpropyl)amino]pentanoic Acid]",0.743 µM,74%,0.618 µM,118%,0.042 µM,96%
"COc1cc(OC)c(Cl)c(C(=O)N(CCCCC(=O)O)CCCc2ccccc2)c1 [Example 39, 5-[(2-chloro-3,5-dimethoxybenzoyl)(3-phenylpropyl)amino]pentanoic Acid]",0.318 µM,80%,1.21 µM,99%,0.054 µM,96%
"COc1cc(C(=O)N(CCCc2ccccc2)CC(=O)NC(C)(C)C(=O)O)cc(OC)c1C [Example 45, N-(3,5-dimethoxy-4-methylbenzoyl)-N-(3-phenylpropyl)glycyl-2-methylalanine]",5.54 µM,71%,0.494 µM,108%,0.051 µM,91%
"COc1cc(C(=O)N(CCCCC(=O)O)CCCc2ccccc2)cc(OC)n1 [Example 48, 5-[(2,6-dimethoxypyridine-4-carbonyl)(3-phenylpropyl)amino]pentanoic Acid]",> 4.77 µM,62%,3.32 µM,113%,0.052 µM,81%
"COc1cc(OC)c(F)c(C(=O)N(CCCCC(=O)O)CCCc2ccccc2)c1 [Example 58, 5-[(2-fluoro-3,5-dimethoxybenzoyl)(3-phenylpropyl)amino]pentanoic Acid]",2.39 µM,78%,0.636 µM,112%,0.032 µM,93%
"COc1ccc(C2(C(=O)N(CCCCC(=O)O)CCCc3ccccc3)CC2)nc1 [Example 63, 5-{[1-(5-methoxypyridin-2-yl)cyclopropane-1-carbonyl](3-phenylpropyl)amino}pentanoic Acid]",5.53 µM,51%,3.07 µM,118%,0.08 µM,87%
"COc1ccc(C2(C(=O)N(CCCCC(=O)O)CCCc3ccccc3)COC2)cc1 [Example 89, 5-{[3-(4-methoxyphenyl)oxetane-3-carbonyl](3-phenylpropyl)amino}pentanoic Acid]",4.7 µM,65%,0.445 µM,114%,0.036 µM,95%
"COc1cc(OC)cc(C(=O)N(CCCCC(=O)O)CCCc2cccc(F)c2)c1 [Example 90, 5-{(3,5-dimethoxybenzoyl)[3-(3-fluorophenyl)propyl]amino}pentanoic Acid]",2.5 µM,76%,0.675 µM,108%,0.037 µM,88%
"COc1cc(C(=O)N(CCCCC(=O)O)CCCc2ccccc2)cc(OC)c1F [Example 99, 5-[(4-fluoro-3,5-dimethoxybenzoyl)(3-phenylpropyl)amino]pentanoic Acid]",7.85 µM,56%,3.25 µM,112%,0.067 µM,82%
"COc1cc(C(=O)N(CCCc2ccc(F)cc2F)CCOCC(=O)O)cc(OC)c1C [Example 130, (2-{[3-(2,4-difluorophenyl)propyl](3,5-dimethoxy-4-methylbenzoyl)amino}ethoxy)acetic Acid]",1.79 µM,83%,0.76 µM,119%,0.041 µM,83%
"COc1cc(OC)cc(C(=O)N(CCCCC(=O)O)CCCc2ccccc2F)c1 [Example 134, 5-{(3,5-dimethoxybenzoyl)[3-(2-fluorophenyl)propyl]amino}pentanoic Acid]",> 10 µM,37%,2.24 µM,125%,0.074 µM,77%
"COc1cc(C(=O)N(CCCc2ccc(F)cc2)CCOCC(=O)O)cc(OC)c1C [Example 139, (2-{(3,5-dimethoxy-4-methylbenzoyl)[3-(4-fluorophenyl)propyl]amino}ethoxy)acetic Acid]",3.15 µM,72%,0.464 µM,125%,0.046 µM,78%
"COc1cc(C(=O)N(CCCCC(=O)O)CCCc2c(F)cccc2F)cc(OC)c1C [Example 147, 5-{[3-(2,6-difluorophenyl)propyl](3,5-dimethoxy-4-methylbenzoyl)amino}pentanoic Acid]",0.665 µM,86%,0.178 µM,122%,0.031 µM,93%
"COc1cc(C(=O)N(CCCc2ccccc2)CCCC(O)C(=O)O)cc(OC)c1C (stereo not drawn) [Example 151, 5-[(3,5-dimethoxy-4-methylbenzoyl)(3-phenylpropyl)amino]-2-hydroxypentanoic Acid]",1.63 µM,79%,0.665 µM,114%,0.037 µM,79%
"COc1cc(C(=O)N(CCCc2ccc(C)o2)CCCC(C)(O)C(=O)O)cc(OC)c1C (stereo not drawn) [Example 174, 5-{(3,5-dimethoxy-4-methylbenzoyl)[3-(5-methylfuran-2-yl)propyl]amino}-2-hydroxy-2-methylpentanoic Acid]",5.43 µM,65%,0.991 µM,118%,0.033 µM,73%
"COc1cc(C(=O)N(CCCCC(=O)O)CCCc2ccc(C)o2)c(F)c(OC)c1F [Example 175, 5-{(2,4-difluoro-3,5-dimethoxybenzoyl)[3-(5-methylfuran-2-yl)propyl]amino}pentanoic Acid]",3.94 µM,67%,5.68 µM,119%,0.048 µM,73%
"COc1cc(C(=O)N(CCCCC(=O)O)CCCc2ccc(C)o2)cc(OC)c1C1CC1 [Example 178, 5-{(4-cyclopropyl-3,5-dimethoxybenzoyl)[3-(5-methylfuran-2-yl)propyl]amino}pentanoic Acid]",1.97 µM,77%,1.56 µM,122%,0.045 µM,84%
"COc1cc(C(=O)N(CCCc2ccccc2)CCOC(=O)NS(C)(=O)=O)cc(OC)c1C [Example 184, 2-[(3,5-dimethoxy-4-methylbenzoyl)(3-phenylpropyl)amino]ethyl (methanesulfonyl)carbamate]",5.56 µM,58%,1.55 µM,99%,0.131 µM,66%
